Broadly, the EC50 is the midpoint of the concentration-response curve.

For this experiment, the system named is recombinant NL4-3 virus (Renilla luciferase in nef, Gag P373S). The experiment is described as follows: HIV cell culture assay (luciferase activity in MT-2 cells infected with NLRluc recombinant virus). The settings on record: NL43, MT-2 cells infected 4-5 days with NLRluc recombinant virus. It counts as cell-based. As for the experimental part: HIV cell culture assay—MT-2 cells and 293T cells were obtained from the NIH AIDS Research and Reference Reagent Program. MT-2 cells were propagated in RPMI 1640 media supplemented with 10% heat inactivated fetal bovine serum, […]. The 293T cells were propagated in DMEM media supplemented with 10% heat inactivated fetal bovine serum (FBS), 100 units/ml penicillin G and 100 μg/ml streptomycin. The proviral DNA clone of NL4-3 was obtained from the NIH AIDS Research and Reference Reagent Program. A recombinant NL4-3 virus, in which a section of the nef gene from NL4-3 was replaced with the Renilla luciferase gene, was used as a reference virus. In addition, residue Gag P373 was converted to P373S. Briefly, the recombinant virus was prepared by transfection of the altered proviral clone of NL4-3. Transfections were performed in 293T cells using LipofectAMINE PLUS from Invitrogen (Carlsbad, Calif.), according to manufacturer's instruction. The virus was titered in MT-2 cells using luciferase enzyme activity as a marker. Luciferase was quantitated using the Dual Luciferase kit from Promega (Madison, Wis.), with modifications to the manufacturer's protocol. The diluted Passive Lysis solution was pre-mixed with the re-suspended Luciferase Assay Reagent and the re-suspended Stop & Glo Substrate (2:1:1 ratio). Fifty (50) μL of the mixture was added to each aspirated well on assay plates and luciferase activity was measured immediately on a Wallac TriLux (Perkin-Elmer). Antiviral activities of inhibitors toward the recombinant virus were quantified by measuring luciferase activity in cells infected for 4-5 days with NLRluc recombinants in the presence serial dilutions of the inhibitor. Table 1 is the key for the data in Table 2.

SMILES strings stand for the structures. Some results are limits rather than exact numbers.

On to `C=C(C)[C@@H]1CC[C@]2(CNC(=O)CN3CCCCS3(=O)=O)CC[C@]3(C)[C@H](CC[C@@H]4[C@@]5(C)CC=C(c6ccc(C(=O)O)cc6)C(C)(C)[C@@H]5CC[C@]43C)[C@@H]12` [Example 147, 4-((1R,3aS,5aR,5bR,7aR,11aS,11bR,13aR,13bR)-3a-((((1,1-dioxido-1,2-thiazinan-2-yl)acetyl)amino)methyl)-1-isopropenyl-5a,5b,8,8,11a-pentamethyl-2,3,3a,4,5,5a,5b,6,7,7a,8,11,11a,11b,12,13,13a,13b-octadecahydro-1H-cyclopenta[a]chrysen-9-yl)benzoic acid], for which the EC50 (class symbol) was < 0.1 µM.

Regarding `C=C(C)[C@@H]1CC[C@]2(CNC3(C(=O)N4CCS(=O)(=O)CC4)CC3)CC[C@]3(C)[C@H](CC[C@@H]4[C@@]5(C)CC=C(c6ccc(C(=O)O)cc6)C(C)(C)[C@@H]5CC[C@]43C)[C@@H]12` [Example 116, 4-((1R,3aS,5aR,5bR,7aR,11aS,11bR,13aR,13bR)-3a-(((1-((1,1-dioxido-4-thiomorpholinyl)carbonyl)cyclopropyl)amino)methyl)-1-isopropenyl-5a,5b,8,8,11a-pentamethyl-2,3,3a,4,5,5a,5b,6,7,7a,8,11,11a,11b,12,13,13a,13b-octadecahydro-1H-cyclopenta[a]chrysen-9-yl)benzoic acid], the EC50 (class symbol) is < 0.1 µM.

With `C=C(C)[C@@H]1CC[C@]2(CNC(=O)CNC)CC[C@]3(C)[C@H](CC[C@@H]4[C@@]5(C)CC=C(c6ccc(C(=O)O)cc6)C(C)(C)[C@@H]5CC[C@]43C)[C@@H]12` [Example 139, 4-((1R,3aS,5aR,5bR,7aR,11aS,11bR,13aR,13bR)-5a,5b,8,8,11a-pentamethyl-3a-((2-(methylamino)acetamido)methyl)-1-(prop-1-en-2-yl)-2,3,3a,4,5,5a,5b,6,7,7a,8,11,11a,11b,12,13,13a,13b-octadecahydro-1H-cyclopenta[a]chrysen-9-yl)benzoic acid], where the note is “class symbol”, the EC50 was < 0.1 µM.

Turning to `C=C(C)[C@@H]1CC[C@]2(CNC(=O)C3CC(=O)NC(=O)C3)CC[C@]3(C)[C@H](CC[C@@H]4[C@@]5(C)CC=C(c6ccc(C(=O)O)cc6)C(C)(C)[C@@H]5CC[C@]43C)[C@@H]12` [Example 134, 4-((1R,3aS,5aR,5bR,7aR,11aS,11bR,13aR,13bR)-3a-((2,6-dioxopiperidine-4-carboxamido)methyl)-5a,5b,8,8,11a-pentamethyl-1-(prop-1-en-2-yl)-2,3,3a,4,5,5a,5b,6,7,7a,8,11,11a,11b,12,13,13a,13b-octadecahydro-1H-cyclopenta[a]chrysen-9-yl)benzoic acid], under “class symbol”, the EC50 is < 0.1 µM.

Regarding `C=C(C)[C@@H]1CC[C@]2(CNCCC(=O)N3CCCC3)CC[C@]3(C)[C@H](CC[C@@H]4[C@@]5(C)CC=C(c6ccc(C(=O)O)cc6)C(C)(C)[C@@H]5CC[C@]43C)[C@@H]12` [Example 70, 4-((1R,3aS,5aR,5bR,7aR,11aS,11bR,13aR,13bR)-5a,5b,8,8,11a-pentamethyl-3a-((3-oxo-3-(pyrrolidin-1-yl)propylamino)methyl)-1-(prop-1-en-2-yl)-2,3,3a,4,5,5a,5b,6,7,7a,8,11,11a,11b,12,13,13a,13b-octadecahydro-1H-cyclopenta[a]chrysen-9-yl)benzoic acid], where the note is “class symbol”, the EC50 was < 0.1 µM.

For `C=C(C)[C@@H]1CC[C@]2(CNCCN(CCO)CCO)CC[C@]3(C)[C@H](CC[C@@H]4[C@@]5(C)CC=C(c6ccc(C(=O)O)cc6)C(C)(C)[C@@H]5CC[C@]43C)[C@@H]12` [Example 24, 4-((1R,3aS,5aR,5bR,7aR,11aS,11bR,13aR,13bR)-3a-((2-(bis(2-hydroxyethyl)amino)ethylamino)methyl)-5a,5b,8,8,11a-pentamethyl-1-(prop-1-en-2-yl)-2,3,3a,4,5,5a,5b,6,7,7a,8,11,11a,11b,12,13,13a,13b-octadecahydro-1H-cyclopenta[a]chrysen-9-yl)benzoic acid], the EC50 (class symbol) is < 0.1 µM.

As to `C=C(C)[C@@H]1CC[C@]2(CNCCC(=O)N3CCOCC3)CC[C@]3(C)[C@H](CC[C@@H]4[C@@]5(C)CC=C(c6ccc(C(=O)O)cc6)C(C)(C)[C@@H]5CC[C@]43C)[C@@H]12` [Example 107, 4-((1R,3aS,5aR,5bR,7aR,11aS,11bR,13aR,13bR)-5a,5b,8,8,11a-pentamethyl-3a-((3-morpholino-3-oxopropylamino)methyl)-1-(prop-1-en-2-yl)-2,3,3a,4,5,5a,5b,6,7,7a,8,11,11a,11b,12,13,13a,13b-octadecahydro-1H-cyclopenta[a]chrysen-9-yl)benzoic acid], the EC50 (class symbol) was < 0.1 µM.

With `C=C(C)[C@@H]1CC[C@]2(CNCCC(=O)N3CCC4(CC3)OCCO4)CC[C@]3(C)[C@H](CC[C@@H]4[C@@]5(C)CC=C(c6ccc(C(=O)O)cc6)C(C)(C)[C@@H]5CC[C@]43C)[C@@H]12` [Example 126], under “numeric value”, the EC50 was 0.001 µM.

As for `C=C(C)[C@@H]1CC[C@]2(CNCCC(=O)N3C[C@H]4CC[C@@H](C3)N4C)CC[C@]3(C)[C@H](CC[C@@H]4[C@@]5(C)CC=C(c6ccc(C(=O)O)cc6)C(C)(C)[C@@H]5CC[C@]43C)[C@@H]12` [Example 121, 4-((1R,3aS,5aR,5bR,7aR,11aS,11bR,13aR,13bR)-5a,5b,8,8,11a-pentamethyl-3a-((3-((1R,5S)-8-methyl-3,8-diazabicyclo[3.2.1]octan-3-yl)-3-oxopropylamino)methyl)-1-(prop-1-en-2-yl)-2,3,3a,4,5,5a,5b,6,7,7a,8,11,11a,11b,12,13,13a,13b-octadecahydro-1H-cyclopenta[a]chrysen-9-yl)benzoic acid], where the note is “class symbol”, the 50% effective concentration (EC50) was < 0.1 µM.

`C=C(C)[C@@H]1CC[C@]2(CNCCN(C)CCS(C)(=O)=O)CC[C@]3(C)[C@H](CC[C@@H]4[C@@]5(C)CC=C(c6ccc(C(=O)O)cc6)C(C)(C)[C@@H]5CC[C@]43C)[C@@H]12` [Example 85, 4-((1R,3aS,5aR,5bR,7aR,11aS,11bR,13aR,13bR)-5a,5b,8,8,11a-pentamethyl-3a-((2-(methyl(2-(methylsulfonyl)ethyl)amino)ethylamino)methyl)-1-(prop-1-en-2-yl)-2,3,3a,4,5,5a,5b,6,7,7a,8,11,11a,11b,12,13,13a,13b-octadecahydro-1H-cyclopenta[a]chrysen-9-yl)benzoic acid]: the EC50 (class symbol) was < 0.1 µM.

With `C=C(C)[C@@H]1CC[C@]2(CN(CCN(C)C)C(=O)CC(=O)O)CC[C@]3(C)[C@H](CC[C@@H]4[C@@]5(C)CC=C(c6ccc(C(=O)O)cc6)C(C)(C)[C@@H]5CC[C@]43C)[C@@H]12` [Example 12, 4-((1R,3aS,5aR,5bR,7aR,11aS,11bR,13aR,13bR)-3a-((2-carboxy-N-(2-(dimethylamino)ethyl)acetamido)methyl)-5a,5b,8,8,11a-pentamethyl-1-(prop-1-en-2-yl)-2,3,3a,4,5,5a,5b,6,7,7a,8,11,11a,11b,12,13,13a,13b-octadecahydro-1H-cyclopenta[a]chrysen-9-yl)benzoic acid], the EC50 (class symbol) was < 0.1 µM.

For `CC(C)[C@@H]1CC[C@]2(CNCCCN3CCS(=O)(=O)CC3)CC[C@]3(C)[C@H](CC[C@@H]4[C@@]5(C)CC=C(c6ccc(C(=O)O)cc6)C(C)(C)[C@@H]5CC[C@]43C)[C@@H]12` [Example 37, 4-((1R,3aS,5aR,5bR,7aR,11aS,11bR,13aR,13bR)-5a,5b,8,8,11a-pentamethyl-1-(prop-1-en-2-yl)-3a-((3-(1-dioxo-thiomorpholino)propylamino)methyl)-2,3,3a,4,5,5a,5b,6,7,7a,8,11,11a,11b,12,13,13a,13b-octadecahydro-1H-cyclopenta[a]chrysen-9-yl)benzoic acid], under “class symbol”, the EC50 is < 0.1 µM.

In the case of `C=C(C)[C@@H]1CC[C@]2(CNCCCN3CCS(=O)(=O)CC3)CC[C@]3(C)[C@H](CC[C@@H]4[C@@]5(C)CC=C(c6ccc(C(=O)O)c(F)c6)C(C)(C)[C@@H]5CC[C@]43C)[C@@H]12` [Example 93, 4-((1R,3aS,5aR,5bR,7aR,11aS,11bR,13aR,13bR)-3a-(((3-(1,1-dioxido-4-thiomorpholinyl)propyl)amino)methyl)-1-isopropenyl-5a,5b,8,8,11a-pentamethyl-2,3,3a,4,5,5a,5b,6,7,7a,8,11,11a,11b,12,13,13a,13b-octadecahydro-1H-cyclopenta[a]chrysen-9-yl)-2-fluorobenzoic acid], the EC50 (class symbol) is < 0.1 µM.

Regarding `C=C(C)[C@@H]1CC[C@]2(CNCCC(=O)N3CCn4c(nnc4C(F)(F)F)C3)CC[C@]3(C)[C@H](CC[C@@H]4[C@@]5(C)CC=C(c6ccc(C(=O)O)cc6)C(C)(C)[C@@H]5CC[C@]43C)[C@@H]12` [Example 119], the EC50 (class symbol) is < 0.1 µM.

For `C=C(C)[C@@H]1CC[C@]2(CNCc3ccoc3)CC[C@]3(C)[C@H](CC[C@@H]4[C@@]5(C)CC=C(c6ccc(C(=O)O)cc6)C(C)(C)[C@@H]5CC[C@]43C)[C@@H]12` [Example 53, 4-((1R,3aS,5aR,5bR,7aR,11aS,11bR,13aR,13bR)-3a-((furan-3-ylmethylamino)methyl)-5a,5b,8,8,11a-pentamethyl-1-(prop-1-en-2-yl)-2,3,3a,4,5,5a,5b,6,7,7a,8,11,11a,11b,12,13,13a,13b-octadecahydro-1H-cyclopenta[a]chrysen-9-yl)benzoic acid], for the setting “class symbol”, the EC50 was < 0.1 µM.

Source of the values: patent publication US8748415B2 (priority 2011, dated 2014).
